Assay results taken from ChEMBL document CHEMBL4507265 (2021).

What was measured:
[1] = molecular target: Tyrosine-protein kinase ABL2 (Homo sapiens) (UniProt P42684); settings: Compound concentration 1000.0 nM
[2] = molecular target: Ankyrin repeat and protein kinase domain-containing protein 1 (Homo sapiens) (UniProt Q8NFD2); settings: Compound concentration 1000.0 nM
[3] = molecular target: Aurora kinase B (Homo sapiens) (UniProt Q96GD4); settings: Compound concentration 1000.0 nM
[4] = molecular target: Serine/threonine-protein kinase B-raf (Homo sapiens) (UniProt P15056); settings: Compound concentration 1000.0 nM
[5] = molecular target: Protein-tyrosine kinase 6 (Homo sapiens) (UniProt Q13882); settings: Compound concentration 1000.0 nM
[6] = molecular target: Cyclin-dependent kinase 3 (Homo sapiens) (UniProt Q00526); settings: Compound concentration 1000.0 nM
[7] = molecular target: Cyclin-dependent kinase 4 (Homo sapiens) (UniProt P11802); settings: Compound concentration 1000.0 nM
[8] = molecular target: Dual specificity protein kinase CLK2 (Homo sapiens) (UniProt P49760); settings: Compound concentration 1000.0 nM
[9] = molecular target: Death-associated protein kinase 1 (Homo sapiens) (UniProt P53355); settings: Compound concentration 1000.0 nM
[10] = molecular target: Serine/threonine-protein kinase DCLK2 (Homo sapiens) (UniProt Q8N568); settings: Compound concentration 1000.0 nM
[11] = molecular target: Dual specificity tyrosine-phosphorylation-regulated kinase 1A (Homo sapiens) (UniProt Q13627); settings: Compound concentration 1000.0 nM
[12] = molecular target: Ephrin type-A receptor 6 (Homo sapiens) (UniProt Q9UF33); settings: Compound concentration 1000.0 nM
[13] = molecular target: Ephrin type-B receptor 3 (Homo sapiens) (UniProt P54753); settings: Compound concentration 1000.0 nM
[14] = molecular target: Mitogen-activated protein kinase 4 (Homo sapiens) (UniProt P31152); settings: Compound concentration 1000.0 nM
[15] = molecular target: Mitogen-activated protein kinase 15 (Homo sapiens) (UniProt Q8TD08); settings: Compound concentration 1000.0 nM
[16] = molecular target: Focal adhesion kinase 1 (Homo sapiens) (UniProt Q05397); settings: Compound concentration 1000.0 nM
[17] = molecular target: Fibroblast growth factor receptor 2 (Homo sapiens) (UniProt P21802); settings: Compound concentration 1000.0 nM
[18] = molecular target: Serine/threonine-protein kinase STK11 (Homo sapiens) (UniProt Q15831); settings: Compound concentration 1000.0 nM
[19] = molecular target: MAP/microtubule affinity-regulating kinase 3 (Homo sapiens) (UniProt P27448); settings: Compound concentration 1000.0 nM
[20] = molecular target: Misshapen-like kinase 1 (Homo sapiens) (UniProt Q8N4C8); settings: Compound concentration 1000.0 nM
[21] = molecular target: Serine/threonine-protein kinase MRCK alpha (Homo sapiens) (UniProt Q5VT25); settings: Compound concentration 1000.0 nM
[22] = molecular target: Serine/threonine-protein kinase 26 (Homo sapiens) (UniProt Q9P289); settings: Compound concentration 1000.0 nM
[23] = molecular target: Serine/threonine-protein kinase PAK 5 (Homo sapiens) (UniProt Q9P286); settings: Compound concentration 1000.0 nM
[24] = molecular target: Phosphatidylinositol 4-phosphate 5-kinase type-1 gamma (Homo sapiens) (UniProt O60331); settings: Compound concentration 1000.0 nM
[25] = molecular target: Protein kinase C epsilon type (Homo sapiens) (UniProt Q02156); settings: Compound concentration 1000.0 nM
[26] = molecular target: Serine/threonine-protein kinase D3 (Homo sapiens) (UniProt O94806); settings: Compound concentration 1000.0 nM
[27] = molecular target: cGMP-dependent protein kinase 1 (Homo sapiens) (UniProt Q13976); settings: Compound concentration 1000.0 nM
[28] = molecular target: Protein-tyrosine kinase 2-beta (Homo sapiens) (UniProt Q14289); settings: Compound concentration 1000.0 nM
[29] = molecular target: SRSF protein kinase 2 (Homo sapiens) (UniProt P78362); settings: Compound concentration 1000.0 nM
[30] = molecular target: Tyrosine-protein kinase receptor Tie-1 (Homo sapiens) (UniProt P35590); settings: Compound concentration 1000.0 nM
[31] = molecular target: TRAF2 and NCK-interacting protein kinase (Homo sapiens) (UniProt Q9UKE5); settings: Compound concentration 1000.0 nM
[32] = molecular target: Activated CDC42 kinase 1 (Homo sapiens) (UniProt Q07912); settings: Compound concentration 1000.0 nM
[33] = molecular target: Serine/threonine-protein kinase 32A (Homo sapiens) (UniProt Q8WU08); settings: Compound concentration 1000.0 nM
[34] = molecular target: Tyrosine-protein kinase Yes (Homo sapiens) (UniProt P07947); settings: Compound concentration 1000.0 nM
[35] = molecular target: 5-hydroxytryptamine receptor 1D (Homo sapiens) (UniProt P28221); settings: Compound concentration 10.0 uM
[36] = molecular target: 5-hydroxytryptamine receptor 6 (Homo sapiens) (UniProt P50406); settings: Compound concentration 10.0 uM
[37] = molecular target: 5-hydroxytryptamine receptor 7 (Homo sapiens) (UniProt P34969); settings: Compound concentration 10.0 uM
[38] = molecular target: T1, D(4) dopamine receptor (Homo sapiens) (UniProt P21917); settings: Compound concentration 10.0 uM
T1 sequence (whole entry): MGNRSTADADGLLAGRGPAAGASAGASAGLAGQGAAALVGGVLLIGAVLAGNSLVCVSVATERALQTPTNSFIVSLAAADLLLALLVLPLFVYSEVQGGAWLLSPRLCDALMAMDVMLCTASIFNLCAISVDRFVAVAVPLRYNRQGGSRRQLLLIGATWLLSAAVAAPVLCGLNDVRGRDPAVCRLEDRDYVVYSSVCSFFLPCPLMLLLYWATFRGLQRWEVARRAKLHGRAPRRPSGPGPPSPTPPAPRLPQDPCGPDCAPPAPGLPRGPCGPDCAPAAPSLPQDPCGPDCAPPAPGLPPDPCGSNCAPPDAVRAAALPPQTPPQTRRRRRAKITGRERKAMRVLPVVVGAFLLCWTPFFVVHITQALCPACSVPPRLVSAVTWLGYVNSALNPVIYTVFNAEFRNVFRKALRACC

[39] = molecular target: Kappa-type opioid receptor (Homo sapiens) (UniProt P41145); settings: Compound concentration 10.0 uM
[40] = molecular target: Alpha-2C adrenergic receptor (Homo sapiens) (UniProt P18825); settings: Compound concentration 10.0 uM

Chain of 5-hydroxytryptamine receptor 6 (Homo sapiens) (P50406 whole entry): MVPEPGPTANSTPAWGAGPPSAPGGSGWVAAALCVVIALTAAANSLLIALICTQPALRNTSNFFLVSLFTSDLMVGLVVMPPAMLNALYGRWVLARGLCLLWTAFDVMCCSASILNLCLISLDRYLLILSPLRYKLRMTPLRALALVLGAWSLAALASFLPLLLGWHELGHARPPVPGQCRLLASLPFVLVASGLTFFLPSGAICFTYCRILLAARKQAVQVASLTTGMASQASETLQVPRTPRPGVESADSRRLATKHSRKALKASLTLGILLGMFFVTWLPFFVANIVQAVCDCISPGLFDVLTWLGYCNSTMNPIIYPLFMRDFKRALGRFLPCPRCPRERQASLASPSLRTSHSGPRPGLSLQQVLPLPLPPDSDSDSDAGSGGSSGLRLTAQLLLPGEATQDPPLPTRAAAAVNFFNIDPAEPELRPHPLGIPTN
Chain of Aurora kinase B (Homo sapiens) (Q96GD4 whole entry): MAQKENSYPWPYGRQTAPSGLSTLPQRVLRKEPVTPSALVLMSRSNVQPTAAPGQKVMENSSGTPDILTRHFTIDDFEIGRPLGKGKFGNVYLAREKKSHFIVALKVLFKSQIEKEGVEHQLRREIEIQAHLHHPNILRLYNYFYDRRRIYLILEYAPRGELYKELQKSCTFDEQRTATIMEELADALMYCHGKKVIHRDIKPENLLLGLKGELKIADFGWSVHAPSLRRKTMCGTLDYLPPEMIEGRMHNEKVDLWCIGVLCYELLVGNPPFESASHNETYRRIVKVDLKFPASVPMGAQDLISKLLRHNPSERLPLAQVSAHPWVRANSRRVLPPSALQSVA
Chain of Serine/threonine-protein kinase 26 (Homo sapiens) (Q9P289 2-416 limits assumed): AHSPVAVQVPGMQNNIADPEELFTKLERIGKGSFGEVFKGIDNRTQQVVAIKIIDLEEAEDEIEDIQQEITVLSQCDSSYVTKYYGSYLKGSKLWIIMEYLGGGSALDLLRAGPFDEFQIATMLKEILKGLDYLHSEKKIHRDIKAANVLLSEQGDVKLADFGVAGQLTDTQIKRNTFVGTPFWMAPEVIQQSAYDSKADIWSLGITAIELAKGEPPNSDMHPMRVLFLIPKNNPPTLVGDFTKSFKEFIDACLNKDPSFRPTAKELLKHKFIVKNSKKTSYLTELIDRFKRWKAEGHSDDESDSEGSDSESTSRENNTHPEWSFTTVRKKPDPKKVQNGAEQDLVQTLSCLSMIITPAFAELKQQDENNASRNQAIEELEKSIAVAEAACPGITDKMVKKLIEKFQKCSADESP
Chain of Tyrosine-protein kinase receptor Tie-1 (Homo sapiens) (P35590 whole entry): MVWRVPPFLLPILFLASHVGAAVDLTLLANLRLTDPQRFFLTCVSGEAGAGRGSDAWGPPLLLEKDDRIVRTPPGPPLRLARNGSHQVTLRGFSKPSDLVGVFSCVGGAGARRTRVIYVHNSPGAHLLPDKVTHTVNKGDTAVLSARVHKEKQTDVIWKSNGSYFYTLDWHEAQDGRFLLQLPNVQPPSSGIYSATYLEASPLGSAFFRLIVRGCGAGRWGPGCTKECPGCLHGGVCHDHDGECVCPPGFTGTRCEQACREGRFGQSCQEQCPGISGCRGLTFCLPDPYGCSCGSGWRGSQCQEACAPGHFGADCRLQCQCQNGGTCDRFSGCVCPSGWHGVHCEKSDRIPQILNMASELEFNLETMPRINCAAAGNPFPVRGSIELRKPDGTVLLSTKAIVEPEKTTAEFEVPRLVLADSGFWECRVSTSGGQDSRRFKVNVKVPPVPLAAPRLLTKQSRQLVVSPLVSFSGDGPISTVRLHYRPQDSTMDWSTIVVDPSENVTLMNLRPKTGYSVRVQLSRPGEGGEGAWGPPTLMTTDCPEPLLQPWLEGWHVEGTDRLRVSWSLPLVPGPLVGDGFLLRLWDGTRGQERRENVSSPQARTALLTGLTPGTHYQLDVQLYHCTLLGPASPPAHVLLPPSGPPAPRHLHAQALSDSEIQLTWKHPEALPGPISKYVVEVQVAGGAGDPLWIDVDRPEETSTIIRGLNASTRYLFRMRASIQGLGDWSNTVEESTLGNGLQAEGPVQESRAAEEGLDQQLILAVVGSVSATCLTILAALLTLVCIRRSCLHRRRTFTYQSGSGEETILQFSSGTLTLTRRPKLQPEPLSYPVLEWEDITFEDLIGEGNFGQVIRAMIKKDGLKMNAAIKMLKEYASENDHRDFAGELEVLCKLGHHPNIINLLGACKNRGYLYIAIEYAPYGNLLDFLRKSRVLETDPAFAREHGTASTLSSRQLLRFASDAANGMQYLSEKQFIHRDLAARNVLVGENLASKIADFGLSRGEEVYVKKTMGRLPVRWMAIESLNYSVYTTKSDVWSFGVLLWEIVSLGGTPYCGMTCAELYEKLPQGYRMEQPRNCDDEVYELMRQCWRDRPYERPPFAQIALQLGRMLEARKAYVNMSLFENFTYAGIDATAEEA
Chain of Mitogen-activated protein kinase 4 (Homo sapiens) (P31152 whole entry): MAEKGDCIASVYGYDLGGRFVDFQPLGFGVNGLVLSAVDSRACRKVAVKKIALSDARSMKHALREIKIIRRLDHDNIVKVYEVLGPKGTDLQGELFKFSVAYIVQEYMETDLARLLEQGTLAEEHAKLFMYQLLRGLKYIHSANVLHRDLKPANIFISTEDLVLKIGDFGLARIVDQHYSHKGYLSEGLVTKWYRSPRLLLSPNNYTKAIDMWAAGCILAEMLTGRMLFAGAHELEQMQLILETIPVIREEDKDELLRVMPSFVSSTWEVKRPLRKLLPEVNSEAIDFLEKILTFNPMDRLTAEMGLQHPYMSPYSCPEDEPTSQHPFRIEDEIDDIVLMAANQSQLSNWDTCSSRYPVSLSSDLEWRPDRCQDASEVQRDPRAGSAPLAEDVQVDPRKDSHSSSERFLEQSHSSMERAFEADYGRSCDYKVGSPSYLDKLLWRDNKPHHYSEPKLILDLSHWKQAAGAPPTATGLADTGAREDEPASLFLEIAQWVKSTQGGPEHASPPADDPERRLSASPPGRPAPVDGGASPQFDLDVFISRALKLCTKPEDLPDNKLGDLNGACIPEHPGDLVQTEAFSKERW
Chain of Serine/threonine-protein kinase STK11 (Homo sapiens) (Q15831 whole entry): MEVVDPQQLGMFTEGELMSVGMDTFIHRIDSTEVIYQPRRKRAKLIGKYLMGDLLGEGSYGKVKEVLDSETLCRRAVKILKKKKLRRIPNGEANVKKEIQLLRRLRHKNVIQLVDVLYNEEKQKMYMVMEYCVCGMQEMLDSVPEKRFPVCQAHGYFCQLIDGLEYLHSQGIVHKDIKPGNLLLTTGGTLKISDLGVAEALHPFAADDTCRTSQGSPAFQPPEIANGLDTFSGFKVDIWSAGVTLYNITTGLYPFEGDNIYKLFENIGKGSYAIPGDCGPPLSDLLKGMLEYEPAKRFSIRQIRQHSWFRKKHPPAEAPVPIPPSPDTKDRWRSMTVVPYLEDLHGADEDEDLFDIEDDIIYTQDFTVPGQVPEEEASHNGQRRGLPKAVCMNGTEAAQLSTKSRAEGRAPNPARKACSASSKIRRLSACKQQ
Chain of MAP/microtubule affinity-regulating kinase 3 (Homo sapiens) (P27448 whole entry, looked up): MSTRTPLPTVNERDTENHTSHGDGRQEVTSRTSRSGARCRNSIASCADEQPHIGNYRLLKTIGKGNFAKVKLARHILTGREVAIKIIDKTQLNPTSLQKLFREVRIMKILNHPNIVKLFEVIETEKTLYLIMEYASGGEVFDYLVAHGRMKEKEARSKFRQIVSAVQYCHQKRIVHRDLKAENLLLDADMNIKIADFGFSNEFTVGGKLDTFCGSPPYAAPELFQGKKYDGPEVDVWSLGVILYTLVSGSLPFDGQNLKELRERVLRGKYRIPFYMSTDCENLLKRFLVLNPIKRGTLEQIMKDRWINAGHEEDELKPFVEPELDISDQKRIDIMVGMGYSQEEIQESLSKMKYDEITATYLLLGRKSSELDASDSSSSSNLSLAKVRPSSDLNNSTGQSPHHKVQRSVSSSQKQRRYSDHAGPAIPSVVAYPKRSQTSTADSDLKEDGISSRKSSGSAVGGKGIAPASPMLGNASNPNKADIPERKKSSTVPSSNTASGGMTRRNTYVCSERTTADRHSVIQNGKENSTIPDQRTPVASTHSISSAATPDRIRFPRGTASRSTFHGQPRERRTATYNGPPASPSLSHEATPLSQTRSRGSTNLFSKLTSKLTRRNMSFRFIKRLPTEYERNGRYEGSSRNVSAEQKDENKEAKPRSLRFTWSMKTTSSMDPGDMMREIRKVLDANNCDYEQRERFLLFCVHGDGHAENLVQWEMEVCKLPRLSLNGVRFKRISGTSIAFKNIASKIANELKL
Chain of Mitogen-activated protein kinase 15 (Homo sapiens) (Q8TD08 whole entry): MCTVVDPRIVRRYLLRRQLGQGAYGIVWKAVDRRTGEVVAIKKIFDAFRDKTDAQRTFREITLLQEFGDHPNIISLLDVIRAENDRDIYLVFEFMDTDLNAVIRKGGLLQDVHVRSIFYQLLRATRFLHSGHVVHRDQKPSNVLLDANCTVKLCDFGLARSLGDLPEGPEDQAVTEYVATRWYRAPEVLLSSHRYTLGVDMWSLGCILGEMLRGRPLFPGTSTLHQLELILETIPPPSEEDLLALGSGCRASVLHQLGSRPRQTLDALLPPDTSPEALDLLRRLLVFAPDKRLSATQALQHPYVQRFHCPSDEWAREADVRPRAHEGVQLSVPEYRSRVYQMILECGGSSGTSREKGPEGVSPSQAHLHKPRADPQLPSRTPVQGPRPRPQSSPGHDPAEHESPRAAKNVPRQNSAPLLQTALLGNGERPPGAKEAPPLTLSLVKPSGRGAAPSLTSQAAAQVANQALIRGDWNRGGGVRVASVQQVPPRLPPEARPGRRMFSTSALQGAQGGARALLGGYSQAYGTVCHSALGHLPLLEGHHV
Chain of Cyclin-dependent kinase 4 (Homo sapiens) (P11802 whole entry): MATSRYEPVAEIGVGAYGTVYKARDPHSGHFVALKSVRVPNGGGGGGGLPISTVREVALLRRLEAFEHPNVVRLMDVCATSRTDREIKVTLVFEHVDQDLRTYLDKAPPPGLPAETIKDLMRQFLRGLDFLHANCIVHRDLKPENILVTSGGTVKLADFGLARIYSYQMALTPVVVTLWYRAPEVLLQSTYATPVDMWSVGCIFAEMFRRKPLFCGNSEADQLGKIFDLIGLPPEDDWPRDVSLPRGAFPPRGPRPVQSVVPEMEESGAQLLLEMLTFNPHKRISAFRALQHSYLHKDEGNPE

Row | Structure (SMILES) | residual activity [1] [%] | residual activity [2] [%] | residual activity [3] [%] | residual activity [4] [%] | residual activity [5] [%] | residual activity [6] [%] | residual activity [7] [%] | residual activity [8] [%] | residual activity [9] [%] | residual activity [10] [%] | residual activity [11] [%] | residual activity [12] [%] | residual activity [13] [%] | residual activity [14] [%] | residual activity [15] [%] | residual activity [16] [%] | residual activity [17] [%] | residual activity [18] [%] | residual activity [19] [%] | residual activity [20] [%] | other results
1 | NS(=O)(=O)c1cc(NC(=O)C2(c3ccccc3Cl)CC2)ccc1Oc1cccc(Cl)c1 [BAY-207] | 80 | 97 | 84 | 71 | 99 | 90 | 95 | 97 | 98 | 74 | 90 | 54 | 62 | 87 | 65 | 87 | 100 | 100 | 92 | 86 | residual activity [21]: 95%; residual activity [22]: 100%; residual activity [23]: 100%; residual activity [24]: 48%; residual activity [25]: 65%; residual activity [26]: 85%; residual activity [27]: 91%; residual activity [28]: 91%; residual activity [29]: 100%; residual activity [30]: 85%; residual activity [31]: 100%; residual activity [32]: 82%; residual activity [33]: 90%; residual activity [34]: 90%; inhibition [35]: 6.75%; inhibition [36]: -4.73%; inhibition [37]: 17.3%; inhibition [38]: 27%; inhibition [39]: 21.2%; inhibition [40]: 89.6%
2 | NS(=O)(=O)c1cc(NC(=O)Cc2ccccc2)ccc1Oc1cccc(Cl)c1 [BAY-1797] | 87 | 78 | 58 | 96 | 96 | 92 | 74 | 91 | 90 | 99 | 95 | 83 | 94 | 91 | 68 | 96 | 61 | 51 | 100 | 90 | residual activity [21]: 91%; residual activity [22]: 99%; residual activity [23]: 63%; residual activity [24]: 100%; residual activity [25]: 87%; residual activity [26]: 100%; residual activity [27]: 100%; residual activity [28]: 79%; residual activity [29]: 88%; residual activity [30]: 100%; residual activity [31]: 93%; residual activity [32]: 79%; residual activity [33]: 100%; residual activity [34]: 86%; inhibition [35]: 1.74%; inhibition [36]: 17.2%; inhibition [37]: 35.2%; inhibition [38]: 28.4%; inhibition [39]: 20.3%; inhibition [40]: 18.2%
